Patent US11279707B2, “NEK inhibitors and methods of use” (DANA-FARBER CANCER INSTITUTE, INC., priority 2017, dated 2022)

Assays:
Format in all cases: biochemical
NEK7 = NEK7 (Homo sapiens, UniProt Q8TDX7); assay: kinase inhibition, NEK7
NEK2 = molecular target: T1, NEK2 (Homo sapiens, UniProt P51955); assay: kinase inhibition, NEK2
T1 sequence (P51955 1-445): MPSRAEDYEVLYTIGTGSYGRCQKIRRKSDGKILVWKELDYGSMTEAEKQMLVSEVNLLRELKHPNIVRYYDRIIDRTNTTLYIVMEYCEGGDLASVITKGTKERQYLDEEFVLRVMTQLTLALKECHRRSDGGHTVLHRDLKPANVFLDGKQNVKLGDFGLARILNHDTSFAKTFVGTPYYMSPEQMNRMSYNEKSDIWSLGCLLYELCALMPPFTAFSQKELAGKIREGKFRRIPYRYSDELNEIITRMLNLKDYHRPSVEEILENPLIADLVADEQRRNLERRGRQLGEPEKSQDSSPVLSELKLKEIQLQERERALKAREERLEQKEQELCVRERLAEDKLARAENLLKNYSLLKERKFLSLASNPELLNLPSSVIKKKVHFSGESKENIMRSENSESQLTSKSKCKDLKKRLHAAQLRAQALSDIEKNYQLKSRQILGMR

GSK3B = GSK3B (Homo sapiens, UniProt P49841); assay: kinase inhibition, GSK3B
Chain of GSK3B (P49841 whole entry, species assumed): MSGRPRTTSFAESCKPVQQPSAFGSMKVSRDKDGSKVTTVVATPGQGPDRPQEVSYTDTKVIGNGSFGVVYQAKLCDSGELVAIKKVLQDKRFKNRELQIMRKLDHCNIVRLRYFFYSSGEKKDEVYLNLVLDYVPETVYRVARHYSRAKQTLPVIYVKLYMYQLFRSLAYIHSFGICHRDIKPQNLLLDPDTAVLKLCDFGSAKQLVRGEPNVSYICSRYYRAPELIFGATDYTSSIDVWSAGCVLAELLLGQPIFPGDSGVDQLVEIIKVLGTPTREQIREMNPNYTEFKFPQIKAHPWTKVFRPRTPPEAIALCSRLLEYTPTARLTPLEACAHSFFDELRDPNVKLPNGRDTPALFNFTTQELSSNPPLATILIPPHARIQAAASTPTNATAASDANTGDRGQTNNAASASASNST

NEK6 = NEK6 (Homo sapiens, UniProt Q9HC98); assay: kinase inhibition, NEK6
Chain of NEK6 (Q9HC98 whole entry, species assumed): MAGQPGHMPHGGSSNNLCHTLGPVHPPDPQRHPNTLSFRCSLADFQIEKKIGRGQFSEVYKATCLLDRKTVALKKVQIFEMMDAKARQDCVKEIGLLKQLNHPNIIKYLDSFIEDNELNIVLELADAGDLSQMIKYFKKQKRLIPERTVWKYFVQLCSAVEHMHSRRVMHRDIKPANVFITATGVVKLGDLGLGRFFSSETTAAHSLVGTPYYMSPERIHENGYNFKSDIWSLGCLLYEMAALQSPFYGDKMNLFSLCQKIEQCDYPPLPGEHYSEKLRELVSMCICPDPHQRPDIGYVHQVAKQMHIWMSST

CLK = assay: kinase inhibition, CLK
MERTK = molecular target: T2, MERTK (Homo sapiens, UniProt Q12866); assay: kinase inhibition, MERTK
T2 sequence (Q12866 21-999): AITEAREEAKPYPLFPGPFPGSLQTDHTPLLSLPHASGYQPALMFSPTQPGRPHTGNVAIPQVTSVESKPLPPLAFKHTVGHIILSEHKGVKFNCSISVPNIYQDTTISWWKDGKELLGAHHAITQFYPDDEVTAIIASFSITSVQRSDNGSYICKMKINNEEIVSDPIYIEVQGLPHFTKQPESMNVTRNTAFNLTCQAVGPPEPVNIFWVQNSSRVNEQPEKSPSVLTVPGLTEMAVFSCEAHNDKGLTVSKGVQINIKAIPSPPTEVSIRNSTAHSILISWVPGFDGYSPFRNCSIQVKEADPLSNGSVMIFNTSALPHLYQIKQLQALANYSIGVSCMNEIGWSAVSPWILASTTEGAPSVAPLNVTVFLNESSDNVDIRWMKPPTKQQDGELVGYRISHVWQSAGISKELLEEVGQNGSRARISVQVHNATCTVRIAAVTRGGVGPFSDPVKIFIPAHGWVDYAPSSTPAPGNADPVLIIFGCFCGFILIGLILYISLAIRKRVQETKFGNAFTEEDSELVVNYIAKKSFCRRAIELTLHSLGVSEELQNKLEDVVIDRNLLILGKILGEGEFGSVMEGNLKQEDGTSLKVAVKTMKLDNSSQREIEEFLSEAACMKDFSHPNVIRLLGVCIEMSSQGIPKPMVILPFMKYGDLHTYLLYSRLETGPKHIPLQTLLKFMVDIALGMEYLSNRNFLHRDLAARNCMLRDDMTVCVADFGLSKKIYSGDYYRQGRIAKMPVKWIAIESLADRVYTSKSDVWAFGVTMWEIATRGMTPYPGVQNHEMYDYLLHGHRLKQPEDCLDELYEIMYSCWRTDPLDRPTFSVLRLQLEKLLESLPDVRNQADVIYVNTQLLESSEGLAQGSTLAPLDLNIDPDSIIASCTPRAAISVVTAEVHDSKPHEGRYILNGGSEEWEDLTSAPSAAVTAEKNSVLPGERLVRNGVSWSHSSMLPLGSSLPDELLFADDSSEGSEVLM

RSK1 = RSK1 (Homo sapiens, UniProt Q15418); assay: kinase inhibition, RSK1
Chain of RSK1 (Q15418 whole entry, species assumed): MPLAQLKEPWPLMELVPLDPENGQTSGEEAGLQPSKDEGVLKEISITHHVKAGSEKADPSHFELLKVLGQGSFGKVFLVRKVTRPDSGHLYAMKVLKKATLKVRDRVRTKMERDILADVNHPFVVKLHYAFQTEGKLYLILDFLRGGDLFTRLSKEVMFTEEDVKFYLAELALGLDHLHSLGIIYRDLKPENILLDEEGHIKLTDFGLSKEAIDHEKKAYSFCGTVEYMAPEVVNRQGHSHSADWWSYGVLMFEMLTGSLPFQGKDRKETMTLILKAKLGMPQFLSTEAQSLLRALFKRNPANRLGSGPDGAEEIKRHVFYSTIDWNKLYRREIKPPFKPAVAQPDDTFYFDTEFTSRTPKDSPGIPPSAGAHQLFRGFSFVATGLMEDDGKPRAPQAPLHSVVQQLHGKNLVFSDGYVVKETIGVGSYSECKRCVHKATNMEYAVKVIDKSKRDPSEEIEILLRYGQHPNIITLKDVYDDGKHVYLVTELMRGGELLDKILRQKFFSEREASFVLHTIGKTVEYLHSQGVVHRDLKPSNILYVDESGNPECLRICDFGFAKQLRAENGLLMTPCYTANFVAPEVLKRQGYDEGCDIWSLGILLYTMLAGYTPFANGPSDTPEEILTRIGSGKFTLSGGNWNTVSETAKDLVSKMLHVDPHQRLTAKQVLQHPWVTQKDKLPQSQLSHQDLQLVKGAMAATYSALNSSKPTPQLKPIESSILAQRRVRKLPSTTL

NEK9 = molecular target: T3, NEK9 (Homo sapiens, UniProt Q8TD19); assay: kinase inhibition, NEK9
T3 sequence (Q8TD19 1-979): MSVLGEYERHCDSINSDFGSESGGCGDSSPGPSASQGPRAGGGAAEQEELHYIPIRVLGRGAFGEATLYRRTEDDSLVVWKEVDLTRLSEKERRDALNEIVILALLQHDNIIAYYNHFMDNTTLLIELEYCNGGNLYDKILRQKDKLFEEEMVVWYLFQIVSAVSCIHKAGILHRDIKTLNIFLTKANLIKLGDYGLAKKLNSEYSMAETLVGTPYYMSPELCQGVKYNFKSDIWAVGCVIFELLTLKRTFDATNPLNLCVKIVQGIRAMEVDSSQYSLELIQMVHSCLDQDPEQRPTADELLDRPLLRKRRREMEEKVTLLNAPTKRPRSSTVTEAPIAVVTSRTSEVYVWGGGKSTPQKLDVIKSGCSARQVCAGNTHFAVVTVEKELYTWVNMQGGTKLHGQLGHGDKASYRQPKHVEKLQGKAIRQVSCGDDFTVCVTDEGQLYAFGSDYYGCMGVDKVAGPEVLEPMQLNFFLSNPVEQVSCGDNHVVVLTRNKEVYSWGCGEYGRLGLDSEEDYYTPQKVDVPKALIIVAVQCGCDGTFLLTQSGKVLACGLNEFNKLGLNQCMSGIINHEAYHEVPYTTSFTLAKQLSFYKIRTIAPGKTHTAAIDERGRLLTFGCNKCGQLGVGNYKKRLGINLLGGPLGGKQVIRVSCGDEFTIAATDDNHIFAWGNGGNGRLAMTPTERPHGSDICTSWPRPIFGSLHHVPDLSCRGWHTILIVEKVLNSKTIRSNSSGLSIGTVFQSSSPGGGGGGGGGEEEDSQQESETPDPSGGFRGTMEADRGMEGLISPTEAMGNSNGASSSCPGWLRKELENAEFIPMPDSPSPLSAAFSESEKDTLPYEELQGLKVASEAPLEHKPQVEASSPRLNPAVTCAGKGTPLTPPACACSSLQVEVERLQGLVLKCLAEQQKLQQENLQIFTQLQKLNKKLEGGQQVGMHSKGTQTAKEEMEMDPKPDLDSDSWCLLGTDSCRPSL

AXL = molecular target: T4, AXL (Homo sapiens, UniProt P30530); assay: kinase inhibition, AXL
T4 sequence (P30530 26-894): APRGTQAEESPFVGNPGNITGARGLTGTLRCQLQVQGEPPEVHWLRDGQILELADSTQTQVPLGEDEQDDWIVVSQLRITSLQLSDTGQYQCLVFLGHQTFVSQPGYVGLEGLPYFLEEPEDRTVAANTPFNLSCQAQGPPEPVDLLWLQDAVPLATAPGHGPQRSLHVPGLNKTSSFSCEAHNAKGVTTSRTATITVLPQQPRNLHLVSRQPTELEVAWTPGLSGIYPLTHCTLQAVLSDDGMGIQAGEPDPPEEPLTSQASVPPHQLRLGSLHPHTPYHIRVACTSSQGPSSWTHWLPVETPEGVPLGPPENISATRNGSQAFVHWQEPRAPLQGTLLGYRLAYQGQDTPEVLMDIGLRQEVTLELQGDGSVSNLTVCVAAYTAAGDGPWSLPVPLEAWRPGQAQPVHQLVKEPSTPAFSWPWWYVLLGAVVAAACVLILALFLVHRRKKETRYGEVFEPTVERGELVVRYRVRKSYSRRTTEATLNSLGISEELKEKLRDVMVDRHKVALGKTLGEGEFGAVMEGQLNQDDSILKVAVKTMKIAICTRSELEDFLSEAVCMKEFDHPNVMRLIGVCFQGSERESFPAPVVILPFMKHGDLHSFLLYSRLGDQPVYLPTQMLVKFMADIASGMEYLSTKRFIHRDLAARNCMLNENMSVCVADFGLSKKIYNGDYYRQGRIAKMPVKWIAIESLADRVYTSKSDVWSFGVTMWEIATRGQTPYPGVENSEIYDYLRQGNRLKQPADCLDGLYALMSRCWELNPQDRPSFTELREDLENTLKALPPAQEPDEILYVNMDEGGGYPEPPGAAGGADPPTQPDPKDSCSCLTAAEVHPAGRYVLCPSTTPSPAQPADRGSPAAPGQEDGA

Chain of NEK7 (Q8TDX7 whole entry, species assumed): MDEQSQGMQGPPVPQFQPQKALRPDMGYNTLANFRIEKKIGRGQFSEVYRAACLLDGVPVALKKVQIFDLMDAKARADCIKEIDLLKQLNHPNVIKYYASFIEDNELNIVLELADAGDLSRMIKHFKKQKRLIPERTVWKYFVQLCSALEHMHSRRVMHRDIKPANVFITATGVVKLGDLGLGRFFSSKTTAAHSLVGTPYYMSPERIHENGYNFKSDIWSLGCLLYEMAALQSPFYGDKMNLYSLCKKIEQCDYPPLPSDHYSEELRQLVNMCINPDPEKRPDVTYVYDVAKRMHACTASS

Question: For CN1CCN(c2ccc(Nc3ncc4c(n3)N3c5ccccc5CC3C(=O)N4C)cc2)CC1 (stereo not drawn) [Compound I-7], which IC50 (NEK7) is on record?
Answer: 250 to 1000 nM

Question: What about the IC50 (NEK2) of the same compound?
Answer: 50 to 250 nM

Question: What about the IC50 (GSK3B) of the same compound?
Answer: 250 to 1000 nM

Question: And the IC50 (NEK6)?
Answer: 1000 to 5000 nM

Question: And the IC50 (CLK)?
Answer: 50 to 250 nM

Question: What about the IC50 (MERTK) of the same compound?
Answer: 250 to 1000 nM

Question: What about the IC50 (RSK1) of the same compound?
Answer: 250 to 1000 nM

Question: What about the IC50 (NEK9) of the same compound?
Answer: ≤ 50 nM

Question: What about the IC50 (AXL) of the same compound?
Answer: 250 to 1000 nM
